The results in this text go back to patent US8173638B2 (Boehringer Ingelheim International GmbH, priority 2006, dated 2012).

T1 sequence (P34972 whole entry): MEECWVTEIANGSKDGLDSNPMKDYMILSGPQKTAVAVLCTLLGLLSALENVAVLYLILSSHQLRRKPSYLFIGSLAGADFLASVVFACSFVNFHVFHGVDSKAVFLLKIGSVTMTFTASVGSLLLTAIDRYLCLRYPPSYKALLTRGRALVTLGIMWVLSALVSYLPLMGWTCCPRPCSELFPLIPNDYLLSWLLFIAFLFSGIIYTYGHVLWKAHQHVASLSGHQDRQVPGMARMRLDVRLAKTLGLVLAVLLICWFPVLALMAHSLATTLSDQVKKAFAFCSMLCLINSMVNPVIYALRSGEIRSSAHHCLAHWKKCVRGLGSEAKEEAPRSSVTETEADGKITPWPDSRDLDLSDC

The assay concerns the target T1, human CB2R (Homo sapiens, UniProt P34972).
T1 construct: host or cells: CHO cells
Kind of assay: CB2R mediated modulation of cAMP synthesis. In kind it is cell-based. Particulars: found through the use of the described assays (CB2 agonists); qualitative statement. The protocol: B. CB2R Mediated Modulation of cAMP Synthesis:
CHO cells expressing human CB2R (Euroscreen) were plated at a density of 5000 cells per well in 384 well plates and incubated overnight at 37° C. After removing the media, the cells were treated with test compounds diluted in stimulation buffer containing 1 mM IBMX, 0.25% BSA and 10 uM Forskolin. The assay was incubated for 30 minutes at 37° C. Cells were lysed and the cAMP concentration was measured using DiscoverX-XS cAMP kit, following the manufacturer's protocol. In this setting, agonists will decrease forskolin induced production of cAMP while inverse agonists will further increase forskolin induced production of cAMP. EC50 of agonists were calculated as follows. The maximal amount of cAMP produced by forskolin compared to the level of cAMP inhibited by 1 uM CP55940 is defined as 100%. […] Data was analyzed using a four-parameter logistic model. (Model 205 of XLfit 4.0).
On to `O=C(CC1CCCC1)N1CCCN(C(=O)Nc2cc(Cl)cc(Cl)c2)CC1` [4-(2-Cyclopentyl-acetyl)-[1,4]diazepane-1-carboxylic acid (3,5-dichloro-phenyl)-amide], for which the agonistic activity entry is given as “agonistic activity”.

Consider `O=C(CC1CCCC1)N1CCCN(C(=O)Nc2cccc(C(F)(F)F)c2)CC1` [4-(2-Cyclopentyl-acetyl)-[1,4]diazepane-1-carboxylic acid (3-trifluoromethyl-phenyl)-amide], for which the agonistic activity result is “agonistic activity”.

Turning to `O=C(CC1CCCC1)N1CCCN(C(=O)Nc2ccc(-c3ccccc3)cc2)CC1` [4-(2-Cyclopentyl-acetyl)-[1,4]diazepane-1-carboxylic acid (4-biphenyl)-amide], the agonistic activity result was “agonistic activity”.

For `CCCC(=O)c1ccc(NC(=O)N2CCCN(C(=O)CC3CCCC3)CC2)cc1` [4-(2-Cyclopentyl-acetyl)-[1,4]diazepane-1-carboxylic acid (4-butyryl-phenyl)-amide], the agonistic activity entry is “agonistic activity”.

In the case of `CCc1ccc(NC(=O)N2CCCN(C(=O)CC3CCCC3)CC2)cc1` [4-(2-Cyclopentyl-acetyl)-[1,4]diazepane-1-carboxylic acid (4-ethyl-phenyl)-amide], the agonistic activity entry is reported as “agonistic activity”.

For `CC(C)c1ccc(NC(=O)N2CCCN(C(=O)CC3CCCC3)CC2)cc1` [4-(2-Cyclopentyl-acetyl)-[1,4]diazepane-1-carboxylic acid (4-isopropyl-phenyl)-amide], the agonistic activity result is listed as “agonistic activity”.

In the case of `CS(=O)(=O)c1ccc(NC(=O)N2CCCN(C(=O)CC3CCCC3)CC2)cc1` [4-(2-Cyclopentyl-acetyl)-[1,4]diazepane-1-carboxylic acid (4-methanesulfonyl-phenyl)-amide], the agonistic activity entry is listed as “agonistic activity”.

On to `CSc1ccc(NC(=O)N2CCCN(C(=O)CC3CCCC3)CC2)cc1` [4-(2-Cyclopentyl-acetyl)-[1,4]diazepane-1-carboxylic acid (4-methylsulfanyl-phenyl)-amide], for which the agonistic activity entry is reported as “agonistic activity”.

For the compound `CCCCCc1ccc(NC(=O)N2CCCN(C(=O)CC3CCCC3)CC2)cc1` [4-(2-Cyclopentyl-acetyl)-[1,4]diazepane-1-carboxylic acid (4-n-pentyl-phenyl)-amide], the agonistic activity entry is listed as “agonistic activity”.

For `CCC(C)c1ccc(NC(=O)N2CCCN(C(=O)CC3CCCC3)CC2)cc1` (centres unmarked) [4-(2-Cyclopentyl-acetyl)-[1,4]diazepane-1-carboxylic acid (4-sec-butyl-phenyl)-amide], the agonistic activity entry is recorded as “agonistic activity”.

For `CC(C)(C)c1ccc(NC(=O)N2CCCN(C(=O)CC3CCCC3)CC2)cc1` [4-(2-Cyclopentyl-acetyl)-[1,4]diazepane-1-carboxylic acid (4-tert-butyl-phenyl)-amide], the agonistic activity entry is recorded as “agonistic activity”.

Consider `O=C(CC1CCCC1)N1CCCN(C(=O)Nc2ccc(OC(F)(F)F)cc2)CC1` [4-(2-Cyclopentyl-acetyl)-[1,4]diazepane-1-carboxylic acid (4-trifluoromethoxy-phenyl)-amide], for which the agonistic activity entry is on record as “agonistic activity”.

Turning to `O=C(CC1CCCC1)N1CCCN(C(=O)Nc2ccc(C(F)(F)F)cc2)CC1` [4-(2-Cyclopentyl-acetyl)-[1,4]diazepane-1-carboxylic acid (4-trifluoromethyl-phenyl)-amide], the agonistic activity result is recorded as “agonistic activity”.

In the case of `CC(C)(C)c1cc(NC(=O)N2CCCN(C(=O)CC3CCCC3)CC2)no1` [4-(2-Cyclopentyl-acetyl)-[1,4]diazepane-1-carboxylic acid (5-tert-butyl-isoxazol-3-yl)-amide], the agonistic activity result is “agonistic activity”.

As for `CCCC(O)c1ccc(NC(=O)N2CCCN(C(=O)CC3CCCC3)CC2)cc1` (centres unmarked) [4-(2-Cyclopentyl-acetyl)-[1,4]diazepane-1-carboxylic acid [4-(1-hydroxy-butyl)-phenyl]-amide], the agonistic activity result is recorded as “agonistic activity”.

For `CC(C)(C)c1ccc(NC(=O)N2CCCN(C(=O)COc3ccccc3)CC2)cc1` [4-(2-Phenoxy-acetyl)-[1,4]diazepane-1-carboxylic acid (4-tert-butyl-phenyl)-amide], the agonistic activity entry was “agonistic activity”.

Consider `O=C(COc1ccccc1)N1CCCN(C(=O)Nc2ccc3ccccc3c2)CC1` [4-(2-Phenoxy-acetyl)-[1,4]diazepane-1-carboxylic acid naphthalen-2-ylamide], for which the agonistic activity result is on record as “agonistic activity”.

Consider `CC(C)(C)c1ccc(NC(=O)N2CCCN(C(=O)CNc3ccccc3)CC2)cc1` [4-(2-Phenylamino-acetyl)-[1,4]diazepane-1-carboxylic acid (4-tert-butyl-phenyl)-amide], for which the agonistic activity entry was “agonistic activity”.

Consider `CC(C)(C)c1ccc(NC(=O)N2CCCN(C(=O)CN3CCCCC3)CC2)cc1` [4-(2-Piperidin-1-yl-acetyl)-[1,4]diazepane-1-carboxylic acid (4-tert-butyl-phenyl)-amide], for which the agonistic activity result was “agonistic activity”.

Take `O=C(CN1CCCCC1)N1CCCN(C(=O)Nc2ccc3ccccc3c2)CC1` [4-(2-Piperidin-1-yl-acetyl)-[1,4]diazepane-1-carboxylic acid naphthalen-2-ylamide]: the agonistic activity entry is listed as “agonistic activity”.

Turning to `CC(C)(C)c1cc(NC(=O)N2CCCN(C(=O)CC3CCCO3)CC2)no1` (centres unmarked) [4-(2-Tetrahydro-furan-2-yl-acetyl)-[1,4]diazepane-1-carboxylic acid (5-tert-butyl-isoxazol-3-yl)-amide], the agonistic activity result is “agonistic activity”.

As for `O=C(CC1CCOCC1)N1CCCN(C(=O)Nc2ccc3c(c2)OC(F)(F)O3)CC1` [4-(2-Tetrahydro-pyran-4-yl-acetyl)-[1,4]diazepane-1-carboxylic acid (2,2-difluoro-benzo[1,3]dioxol-5-yl)-amide], the agonistic activity entry is recorded as “agonistic activity”.

In the case of `O=C(CC1CCOCC1)N1CCCN(C(=O)Nc2ccc3ccccc3c2)CC1` [4-(2-Tetrahydro-pyran-4-yl-acetyl)-[1,4]diazepane-1-carboxylic acid (2-naphthyl)-amide], the agonistic activity result is “agonistic activity”.

In the case of `O=C(CC1CCOCC1)N1CCCN(C(=O)Nc2cc(Cl)cc(Cl)c2)CC1` [4-(2-Tetrahydro-pyran-4-yl-acetyl)-[1,4]diazepane-1-carboxylic acid (3,5-dichloro-phenyl)-amide], the agonistic activity result is “agonistic activity”.

For `CCCCc1ccc(NC(=O)N2CCCN(C(=O)CC3CCOCC3)CC2)cc1` [4-(2-Tetrahydro-pyran-4-yl-acetyl)-[1,4]diazepane-1-carboxylic acid (4-butyl-phenyl)-amide], the agonistic activity result is “agonistic activity”.

As to `CCc1ccc(NC(=O)N2CCCN(C(=O)CC3CCOCC3)CC2)cc1` [4-(2-Tetrahydro-pyran-4-yl-acetyl)-[1,4]diazepane-1-carboxylic acid (4-ethyl-phenyl)-amide], the agonistic activity entry was “agonistic activity”.

On to `CC(C)c1ccc(NC(=O)N2CCCN(C(=O)CC3CCOCC3)CC2)cc1` [4-(2-Tetrahydro-pyran-4-yl-acetyl)-[1,4]diazepane-1-carboxylic acid (4-isopropyl-phenyl)-amide], for which the agonistic activity result is on record as “agonistic activity”.

`CS(=O)(=O)c1ccc(NC(=O)N2CCCN(C(=O)CC3CCOCC3)CC2)cc1` [4-(2-Tetrahydro-pyran-4-yl-acetyl)-[1,4]diazepane-1-carboxylic acid (4-methanesulfonyl-phenyl)-amide]: the agonistic activity result is given as “agonistic activity”.

With `CSc1ccc(NC(=O)N2CCCN(C(=O)CC3CCOCC3)CC2)cc1` [4-(2-Tetrahydro-pyran-4-yl-acetyl)-[1,4]diazepane-1-carboxylic acid (4-methylsulfanyl-phenyl)-amide], the agonistic activity entry is on record as “agonistic activity”.

As for `CCCCCc1ccc(NC(=O)N2CCCN(C(=O)CC3CCOCC3)CC2)cc1` [4-(2-Tetrahydro-pyran-4-yl-acetyl)-[1,4]diazepane-1-carboxylic acid (4-pentyl-phenyl)-amide], the agonistic activity result is on record as “agonistic activity”.

In the case of `CCC(C)c1ccc(NC(=O)N2CCCN(C(=O)CC3CCOCC3)CC2)cc1` (centres unmarked) [4-(2-Tetrahydro-pyran-4-yl-acetyl)-[1,4]diazepane-1-carboxylic acid (4-sec-butyl-phenyl)-amide], the agonistic activity result is on record as “agonistic activity”.

As for `CC(C)(C)c1ccc(NC(=O)N2CCCN(C(=O)CC3CCOCC3)CC2)cc1` [4-(2-Tetrahydro-pyran-4-yl-acetyl)-[1,4]diazepane-1-carboxylic acid (4-tert-butyl-phenyl)-amide], the agonistic activity entry was “agonistic activity”.

For the compound `O=C(CC1CCOCC1)N1CCCN(C(=O)Nc2ccc(OC(F)(F)F)cc2)CC1` [4-(2-Tetrahydro-pyran-4-yl-acetyl)-[1,4]diazepane-1-carboxylic acid (4-trifluoromethoxy-phenyl)-amide], the agonistic activity result is “agonistic activity”.

Regarding `O=C(CC1CCOCC1)N1CCCN(C(=O)Nc2ccc(C(F)(F)F)cc2)CC1` [4-(2-Tetrahydro-pyran-4-yl-acetyl)-[1,4]diazepane-1-carboxylic acid (4-trifluoromethyl-phenyl)-amide], the agonistic activity result is on record as “agonistic activity”.

In the case of `CC(C)(C)c1ccc(NC(=O)N2CCCN(C(=O)CN3CCSCC3)CC2)cc1` [4-(2-Thiomorpholin-4-yl-acetyl)-[1,4]diazepane-1-carboxylic acid (4-tert-butyl-phenyl)-amide], the agonistic activity result is recorded as “agonistic activity”.
